The record followed here is patent US20230159569A1, “DUAL HDAC6/PROTEASOME INHIBITORS, AND METHODS OF USE THEREOF” (UNIVERSITY OF MARYLAND, BALTIMORE, priority 2021, published 2023).

For one assay, the target named is HDAC1 (Homo sapiens, UniProt Q13547). Kind of assay: HDAC activity assay (microfluidics mobility shift), HDAC1. The assay is classed as biochemical. The conditions noted are these: compound concentration 1 μM; non-covalent dual inhibitors. How it is done:
(§1) HDAC ACTIVITY ASSAYS: HDAC activity is measured using a microfluidics mobility shift platform. A fluorescently labeled substrate is reacted with the enzyme along with addition of test compounds followed by reading through microfluidic chips. Enzyme activity is determined through quantitative comparison of the […] that results from enzymatic activity.
(§2) The concentration of each non-covalent inhibitor compound tested in this study was 1 μM.

In the next assay the target is T1, HDAC6 (Homo sapiens, UniProt Q9UBN7).
T1 sequence (Q9UBN7 1-1215): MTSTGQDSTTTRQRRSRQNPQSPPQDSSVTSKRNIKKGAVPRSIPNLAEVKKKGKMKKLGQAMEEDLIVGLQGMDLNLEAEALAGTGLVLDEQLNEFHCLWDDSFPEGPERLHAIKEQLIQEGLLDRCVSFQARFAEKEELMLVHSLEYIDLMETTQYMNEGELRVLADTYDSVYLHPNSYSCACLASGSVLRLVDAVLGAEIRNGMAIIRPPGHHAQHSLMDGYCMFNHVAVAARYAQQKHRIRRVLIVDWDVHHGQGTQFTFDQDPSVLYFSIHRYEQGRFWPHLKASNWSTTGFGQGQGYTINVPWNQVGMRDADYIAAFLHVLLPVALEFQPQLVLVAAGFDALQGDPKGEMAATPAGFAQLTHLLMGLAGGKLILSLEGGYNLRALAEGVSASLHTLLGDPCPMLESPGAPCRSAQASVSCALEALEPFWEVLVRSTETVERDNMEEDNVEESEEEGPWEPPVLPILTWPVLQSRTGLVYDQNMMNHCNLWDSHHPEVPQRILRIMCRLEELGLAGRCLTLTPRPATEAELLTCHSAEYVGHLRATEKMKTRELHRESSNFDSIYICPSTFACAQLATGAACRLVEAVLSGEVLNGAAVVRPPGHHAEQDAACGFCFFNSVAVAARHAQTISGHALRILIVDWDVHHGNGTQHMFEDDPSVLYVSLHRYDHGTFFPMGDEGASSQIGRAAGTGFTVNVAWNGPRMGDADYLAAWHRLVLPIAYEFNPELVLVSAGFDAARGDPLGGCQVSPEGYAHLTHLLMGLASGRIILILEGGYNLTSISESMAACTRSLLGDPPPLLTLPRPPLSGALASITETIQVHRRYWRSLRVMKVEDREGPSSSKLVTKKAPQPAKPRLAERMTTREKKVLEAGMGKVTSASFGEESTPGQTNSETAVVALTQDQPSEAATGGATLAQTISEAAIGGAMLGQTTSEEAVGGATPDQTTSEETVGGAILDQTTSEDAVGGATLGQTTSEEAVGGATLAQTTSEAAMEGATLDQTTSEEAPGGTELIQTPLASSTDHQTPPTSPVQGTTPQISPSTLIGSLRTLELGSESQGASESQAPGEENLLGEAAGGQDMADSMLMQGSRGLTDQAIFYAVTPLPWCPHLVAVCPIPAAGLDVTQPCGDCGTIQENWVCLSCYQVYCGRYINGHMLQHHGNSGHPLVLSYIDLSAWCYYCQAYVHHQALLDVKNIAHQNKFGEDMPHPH
Kind of assay: HDAC activity assay (microfluidics mobility shift), HDAC6. The format is biochemical. The conditions noted are these: for inhibition at 1 µM: compound concentration 1 μM, non-covalent dual inhibitors; for IC50 / HDAC1/HDAC6 (HDAC1 IC50/HDAC6 IC50, selectivity for HDAC6): covalent dual inhibitors. On the procedure:
as §1, §2

SMILES strings stand for the structures.

HDAC1, sequence (Q13547 whole entry): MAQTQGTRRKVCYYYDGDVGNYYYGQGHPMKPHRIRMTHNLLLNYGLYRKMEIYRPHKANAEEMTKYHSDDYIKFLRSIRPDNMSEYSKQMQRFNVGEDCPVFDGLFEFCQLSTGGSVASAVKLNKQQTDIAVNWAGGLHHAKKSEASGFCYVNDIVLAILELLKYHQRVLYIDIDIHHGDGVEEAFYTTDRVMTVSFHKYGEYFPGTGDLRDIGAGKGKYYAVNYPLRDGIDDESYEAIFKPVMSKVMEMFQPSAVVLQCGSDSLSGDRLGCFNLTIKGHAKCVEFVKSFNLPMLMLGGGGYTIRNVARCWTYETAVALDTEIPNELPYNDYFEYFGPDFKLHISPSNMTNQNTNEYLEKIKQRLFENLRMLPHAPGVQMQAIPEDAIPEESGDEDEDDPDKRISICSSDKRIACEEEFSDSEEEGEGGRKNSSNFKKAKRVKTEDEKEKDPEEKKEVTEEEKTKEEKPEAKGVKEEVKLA

`C[C@H](NC(=O)[C@H](CC(=O)NCC(C)(C)C)NC(=O)CCC(=O)Nc1ccc(C(=O)NO)cc1)C(=O)NCc1ccc(F)cc1F` [AMC-2-036]: the inhibition at 1 µM on HDAC1 was determined as 61%; on HDAC6, 95%. Besides, the “potency and selectivity for HDAC6” value on HDAC6 (FIG. 11, fold improvement over HDAC1 inhibition) is reported as “highly potent”.
Consider `C[C@H](NC(=O)[C@H](CC(=O)NCC(C)(C)C)NC(=O)C(=O)c1c[nH]c2ccccc12)C(=O)NCc1ccc(F)cc1F` [AMC-2-052], for which the inhibition at 1 µM at HDAC1 stood at 41%; on HDAC6, 59%.
Turning to `C[C@H](NC(=O)[C@H](CC(=O)NCC(C)(C)C)NC(=O)CCCCCCC(=O)NO)C(=O)NCc1ccc(F)cc1F` [AMC-2-067], the inhibition at 1 µM at HDAC1 was 74%; at HDAC6 it was 86%.
In the case of `C[C@H](NC(=O)[C@H](CC(=O)NCC(C)(C)C)NC(=O)c1ccc(C(=O)Nc2ccccc2N)cc1)C(=O)NCc1ccc(F)cc1F` [AMC-2-091], the values for the inhibition at 1 µM at HDAC1 and on HDAC6 were 65% and 13%, respectively.
With `COC(=O)c1ccc(C(=O)N[C@@H](CC(=O)NCC(C)(C)C)C(=O)N[C@@H](C)C(=O)NCc2ccc(F)cc2F)cc1` [AMC-2-152], the inhibition at 1 µM worked out at 3% at HDAC1 and 18% at HDAC6.
On to `COC(=O)CCCCCCC(=O)N[C@@H](CC(=O)NCC(C)(C)C)C(=O)N[C@@H](C)C(=O)NCc1ccc(F)cc1F` [AMC-2-198], for which the values for the inhibition at 1 µM on HDAC1 and on HDAC6 were 1% and 8%, respectively.
Taken in the same sequence, the figures for `C[C@H](NC(=O)[C@H](CC(=O)NCC(C)(C)C)NC(=O)CCCCCCC(=O)O)C(=O)NCc1ccc(F)cc1F` [AMC-2-204] were 3% and 8%.
For the compound `C[C@H](NC(=O)[C@H](CC(=O)NCC(C)(C)C)NC(=O)c1ccc(C(=O)O)cc1)C(=O)NCc1ccc(F)cc1F` [AMC-2-225], the inhibition at 1 µM at HDAC1 is -3%; at HDAC6, 4%.
With `CC(C)C[C@H](NC(=O)[C@H](Cc1ccccc1)NC(=O)c1ccc(C(=O)NOC2CCCCO2)cc1)B1OC2C[C@H]3C[C@H](C3(C)C)[C@@]2(C)O1` (stereo partly drawn) [AMC-2-248], on HDAC6, the IC50 is over 30000 nM.
As to `CC(C)C[C@H](NC(=O)[C@H](Cc1ccccc1)NC(=O)c1ccc(C(=O)NO)cc1)B1OC2C[C@H]3C[C@H](C3(C)C)[C@@]2(C)O1` (stereo partly drawn) [AMC-3-017], on HDAC6, the “HDAC1/HDAC6 (HDAC1 IC50/HDAC6 IC50, selectivity for HDAC6)” value amounted to 14.3 and the IC50 is 198 nM.
Taken in the same sequence, the figures for `CCNC(=O)ONC(=O)c1ccc(C(=O)N[C@@H](Cc2ccccc2)C(=O)N[C@@H](CC(C)C)B2OC3C[C@H]4C[C@H](C4(C)C)[C@@]3(C)O2)cc1` (stereo partly drawn) [AMC-3-019] were over 3.69 and 8120 nM.
Taken in the same sequence, the figures for `CC(C)C[C@H](NC(=O)CNC(=O)c1ccc(C(=O)NOC(=O)Nc2ccccc2)cc1)B1OC2C[C@H]3C[C@H](C3(C)C)[C@@]2(C)O1` (stereo partly drawn) [AMC-3-030] were over 33.9 and 884 nM.
Consider `CC(C)C[C@H](NC(=O)CNC(=O)c1ccc(C(=O)NO)cc1)B1OC2C[C@H]3C[C@H](C3(C)C)[C@@]2(C)O1` (stereo partly drawn) [AMC-3-031], for which, on HDAC6, the “HDAC1/HDAC6 (HDAC1 IC50/HDAC6 IC50, selectivity for HDAC6)” value came to 20.4 and the IC50 was found to be 258 nM.
Take `CC(C)C[C@H](NC(=O)[C@H](Cc1ccccc1)NC(=O)c1ccc(C(=O)NOC(=O)NCc2ccccc2)cc1)B1OC2C[C@H]3C[C@H](C3(C)C)[C@@]2(C)O1` (stereo partly drawn) [AMC-3-033]: on HDAC6, the “HDAC1/HDAC6 (HDAC1 IC50/HDAC6 IC50, selectivity for HDAC6)” value came out at 4.75 and the IC50 was found to be 6320 nM.
Take `CC(C)C[C@H](NC(=O)[C@H](Cc1ccccc1)NC(=O)c1ccc(/C=C/C(=O)NO)cc1)B1OC2C[C@H]3C[C@H](C3(C)C)[C@@]2(C)O1` (stereo partly drawn) [AMC-3-041]: on HDAC6, the “HDAC1/HDAC6 (HDAC1 IC50/HDAC6 IC50, selectivity for HDAC6)” value was determined as 0.93 and the IC50 stood at 61 nM.
In the case of `CC(C)C[C@H](NC(=O)CNC(=O)c1ccc(C(=O)NOC(=O)NCc2ccccc2)cc1)B1OC2C[C@H]3C[C@H](C3(C)C)[C@@]2(C)O1` (stereo partly drawn) [AMC-3-047], on HDAC6, the “HDAC1/HDAC6 (HDAC1 IC50/HDAC6 IC50, selectivity for HDAC6)” value was 8.77 and the IC50 was found to be 3420 nM.
Taken in the same sequence, the figures for `CCNC(=O)ONC(=O)c1ccc(C(=O)NCC(=O)N[C@@H](CC(C)C)B2OC3C[C@H]4C[C@H](C4(C)C)[C@@]3(C)O2)cc1` (stereo partly drawn) [AMC-3-048] were over 5.58 and 5380 nM.
As for `CCNC(=O)ONC(=O)/C=C/c1ccc(C(=O)NCC(=O)N[C@@H](CC(C)C)B2OC3C[C@H]4C[C@H](C4(C)C)[C@@]3(C)O2)cc1` (stereo partly drawn) [AMC-3-055], on HDAC6, the “HDAC1/HDAC6 (HDAC1 IC50/HDAC6 IC50, selectivity for HDAC6)” value was found to be 2.30 and the IC50 came out at 1150 nM.
